For experiment [1], the target named is as-TOR2 (TOR2 kinase, analog-sensitive allele) (Saccharomyces cerevisiae, UniProt P32600, L2178A). The experiment is described as follows: in vitro kinase assay of purified TORC2 at […] ATP. Format: biochemical.
Another experiment concerns the target wt-TOR2 (TOR2 kinase) (Saccharomyces cerevisiae, UniProt P32600). The experiment is described as follows: in vitro kinase assay of purified TORC2 at […] ATP. Type of experiment: biochemical.

One compound from PMC4007695 (Cell reports, 2013) can be followed below.

The IC50 is the concentration needed to halve the response being measured.

For the compound `Cn1c(=O)n(-c2ccc(C(C)(C)C#N)cc2)c2c3cc(-c4cnc5ccccc5c4)ccc3ncc21` [BEZ235], the IC50 in experiment [1] stood at 0.05 µM; at wt-TOR2 (TOR2 kinase), 0.111 µM.
